According to PubChem BioAssay AID256 (DTP/NCI, 2004):
Toxic doses and inconclusive results are not listed.

Tested on: CD2F1 mice, L1210 leukemia ip, survival T/C
Assay: NCI In Vivo Anticancer Drug Screen. Data for tumor model L1210 Leukemia (intraperitoneal) in CD2F1 (CDF1) mice
Settings: higher = longer survival
Summary of the method: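 Antitumor effect is scored in animals hosting a serially transplanted tumor. Values compare compound-dosed animals against vehicle-only controls as a simple quotient.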

[1] = endpoint: mean survival time, dose: 100.0 mg/kg/injection, schedule: Q01DX001 (ip), vehicle: saline with Tween-80
[2] = endpoint: mean survival time, dose: 200.0 mg/kg/injection, schedule: Q01DX001 (ip), vehicle: saline with Tween-80
[3] = endpoint: mean survival time, dose: 400.0 mg/kg/injection, schedule: Q01DX001 (ip), vehicle: saline with Tween-80
[4] = endpoint: mean survival time, dose: 100.0 mg/kg/injection, schedule: Q04DX003 (ip), vehicle: saline with Tween-80
[5] = endpoint: mean survival time, dose: 200.0 mg/kg/injection, schedule: Q04DX003 (ip), vehicle: saline with Tween-80
[6] = endpoint: mean survival time, dose: 75.0 mg/kg/injection, schedule: Q01DX001 (ip), vehicle: saline
[7] = endpoint: mean survival time, dose: 150.0 mg/kg/injection, schedule: Q01DX001 (ip), vehicle: saline
[8] = endpoint: mean survival time, dose: 300.0 mg/kg/injection, schedule: Q01DX001 (ip), vehicle: saline
[9] = endpoint: mean survival time, dose: 50.0 mg/kg/injection, schedule: Q01DX009 (ip), vehicle: saline with Tween-80
[10] = endpoint: mean survival time, dose: 100.0 mg/kg/injection, schedule: Q01DX009 (ip), vehicle: saline with Tween-80
[11] = endpoint: mean survival time, dose: 200.0 mg/kg/injection, schedule: Q01DX009 (ip), vehicle: saline with Tween-80
[12] = endpoint: mean survival time, dose: 25.0 mg/kg/injection, schedule: Q04DX002 (ip), vehicle: saline with Tween-80
[13] = endpoint: mean survival time, dose: 100.0 mg/kg/injection, schedule: Q01DX001 (ip), vehicle: saline
[14] = endpoint: mean survival time, dose: 100.0 mg/kg/injection, schedule: Q04DX003 (ip), vehicle: saline
[15] = endpoint: mean survival time, dose: 200.0 mg/kg/injection, schedule: Q01DX001 (ip), vehicle: saline
[16] = endpoint: mean survival time, dose: 200.0 mg/kg/injection, schedule: Q04DX003 (ip), vehicle: saline
[17] = endpoint: mean survival time, dose: 400.0 mg/kg/injection, schedule: Q01DX001 (ip), vehicle: saline
[18] = endpoint: mean survival time, dose: 400.0 mg/kg/injection, schedule: Q04DX003 (ip), vehicle: saline

For `CC(=O)OCC(OC(C)=O)C(OC(C)=O)C(OC(C)=O)C(COC(=O)c1ccccc1)OC(=O)c1ccccc1` (configuration not stated), the T/C [1] was 96 % of control, the T/C [2] was 100 % of control and the T/C [3] was 96 % of control.
`CC(C(=O)NN)C(O)C(C)(C)O` (configuration not stated) was tested, and the T/C [4] was 96 % of control, the T/C [5] was 96 % of control and the T/C (endpoint: mean survival time, dose: 400.0 mg/kg/injection, schedule: Q04DX003 (ip), vehicle: saline with Tween-80) was 103 % of control.
In the case of `CCC1(C)C(=O)CCC2C1CCC1(C)C(C(C)CCCC(C)C)CCC21` (configuration not stated), the T/C (endpoint: mean survival time, dose: 100.0 mg/kg/injection, schedule: Q01DX001 (sc), vehicle: steriod suspending solution) is reported as 101 % of control, the T/C (endpoint: mean survival time, dose: 200.0 mg/kg/injection, schedule: Q01DX001 (sc), vehicle: steriod suspending solution) is reported as 98 % of control and the T/C (endpoint: mean survival time, dose: 400.0 mg/kg/injection, schedule: Q01DX001 (sc), vehicle: steriod suspending solution) is reported as 118 % of control.
`CCCCCCCCCCCCCCCCCCCOc1ccc(OCCCCCCCCCCCC)cc1` was tested, and the T/C [1] was 93 % of control, the T/C [2] was 89 % of control and the T/C [3] was 88 % of control.
In the case of `Cc1ccc(N/C=C\c2cc[n+](C)cc2)nc1`, the T/C [6] is reported as 103 % of control, the T/C [7] is reported as 106 % of control and the T/C [8] is reported as 105 % of control.
With `c1ccc(CCN2COc3c(ccc4cccnc34)C2)cc1` the T/C (endpoint: mean survival time, dose: 12.5 mg/kg/injection, schedule: Q04DX003 (ip), vehicle: saline with Tween-80) was 102 % of control, the T/C (endpoint: mean survival time, dose: 25.0 mg/kg/injection, schedule: Q04DX003 (ip), vehicle: saline with Tween-80) was 91 % of control and the T/C (endpoint: mean survival time, dose: 50.0 mg/kg/injection, schedule: Q04DX003 (ip), vehicle: saline with Tween-80) was 98 % of control.
`CN(C)C(c1ccccc1)C(O)c1ccccc1` (configuration not stated) was tested, and the T/C [6] was 103 % of control and the T/C [7] was 97 % of control.
With `CSCCC(NC(=O)CN)C(=O)O` (configuration not stated) the T/C [9] was 96 % of control, the T/C [10] was 92 % of control and the T/C [11] was 100 % of control.
`Cc1ccc(S(=O)(=O)OC2(c3ccc(C(F)(F)F)cc3)C3CCC2CC3)cc1` (configuration not stated) was tested, and the T/C (endpoint: mean survival time, dose: 12.5 mg/kg/injection, schedule: Q04DX002 (ip), vehicle: saline with Tween-80) was 104 % of control, the T/C [12] was 101 % of control and the T/C (endpoint: mean survival time, dose: 50.0 mg/kg/injection, schedule: Q04DX002 (ip), vehicle: saline with Tween-80) was 104 % of control.
`O=CC(CO)OC(C=O)n1ccc(=O)[nH]c1=O` (configuration not stated) was tested, and the T/C (endpoint: median survival time, dose: 50.0 mg/kg/injection, schedule: Q04DX003 (ip), vehicle: saline) was 116 % of control, the T/C (endpoint: median survival time, dose: 200.0 mg/kg/injection, schedule: Q04DX003 (ip), vehicle: saline) was 178 % of control and the T/C (endpoint: median survival time, dose: 400.0 mg/kg/injection, schedule: Q04DX003 (ip), vehicle: saline) was 285 % of control. The T/C (endpoint: median survival time, dose: 800.0 mg/kg/injection, schedule: Q04DX003 (ip), vehicle: saline) was 261 % of control.
`CC12OC3(C)C4CC1C1(C)OC4(C)C3C(O)C21` (configuration not stated) was tested, and the T/C [13] was 97 % of control, the T/C [14] was 105 % of control and the T/C [15] was 97 % of control. For the same compound, the T/C [16] was 102 % of control, the T/C [17] was 100 % of control and the T/C [18] was 96 % of control.
In the case of `CSc1ncc(C=O)c(N)n1`, the T/C [1] is reported as 96 % of control, the T/C [2] is reported as 97 % of control and the T/C [3] is reported as 95 % of control.
With `C=CCN(CC=C)C(=O)NCC(=O)OCC` the T/C [9] was 101 % of control, the T/C [10] was 95 % of control and the T/C [11] was 97 % of control.
`C1CN(CC2COC(CN3CCOCC3)CO2)CCO1` (configuration not stated) was tested, and the T/C (endpoint: mean survival time, dose: 100.0 mg/kg/injection, schedule: Q01DX009 (ip), vehicle: saline) was 102 % of control, the T/C (endpoint: mean survival time, dose: 200.0 mg/kg/injection, schedule: Q01DX009 (ip), vehicle: saline) was 102 % of control and the T/C (endpoint: mean survival time, dose: 400.0 mg/kg/injection, schedule: Q01DX009 (ip), vehicle: saline) was 104 % of control.
In the case of `Cc1cccc(NC(N)=S)n1`, the T/C (endpoint: mean survival time, dose: 12.5 mg/kg/injection, schedule: Q01DX009 (ip), vehicle: other) is reported as 103 % of control, the T/C (endpoint: mean survival time, dose: 25.0 mg/kg/injection, schedule: Q01DX009 (ip), vehicle: other) is reported as 107 % of control and the T/C (endpoint: mean survival time, dose: 50.0 mg/kg/injection, schedule: Q01DX009 (ip), vehicle: other) is reported as 107 % of control. For the same compound, the T/C (endpoint: mean survival time, dose: 100.0 mg/kg/injection, schedule: Q01DX009 (ip), vehicle: other) was 91 % of control and the T/C (endpoint: mean survival time, dose: 200.0 mg/kg/injection, schedule: Q01DX009 (ip), vehicle: other) was 111 % of control.
`O=C(OCC1OC(n2cnc3c(=S)nc[nH]c32)C(OC(=O)c2ccc([N+](=O)[O-])cc2)C1OC(=O)c1ccc([N+](=O)[O-])cc1)c1ccc([N+](=O)[O-])cc1` (configuration not stated) was tested, and the T/C (endpoint: mean survival time, dose: 132.0 mg/kg/injection, schedule: Q01DX009 (ip), vehicle: saline with Tween-80) was 157 % of control.
In the case of `Cc1c(/C=N/NC=O)[nH]c(=O)[nH]c1=O`, the T/C [13] is reported as 89 % of control, the T/C [15] is reported as 91 % of control and the T/C [17] is reported as 86 % of control.
With `Cc1ccc2c([N+](=O)[O-])cccc2n1` the T/C (endpoint: mean survival time, dose: 25.0 mg/kg/injection, schedule: Q01DX009 (ip), vehicle: saline with Tween-80) was 93 % of control, the T/C [9] was 96 % of control and the T/C [10] was 104 % of control.
In the case of `COc1ccc2c(C)cc(C)nc2n1`, the T/C (endpoint: mean survival time, dose: 75.0 mg/kg/injection, schedule: Q01DX001 (ip), vehicle: other) is reported as 95 % of control, the T/C (endpoint: mean survival time, dose: 150.0 mg/kg/injection, schedule: Q01DX001 (ip), vehicle: other) is reported as 104 % of control and the T/C (endpoint: mean survival time, dose: 300.0 mg/kg/injection, schedule: Q01DX001 (ip), vehicle: other) is reported as 104 % of control.
With `NC(=Nc1ccccc1)Nc1ccccc1` the T/C (endpoint: mean survival time, dose: 6.25 mg/kg/injection, schedule: Q04DX002 (ip), vehicle: Klucel (hydroxypropylcellulose) (HPC)) was 96 % of control, the T/C (endpoint: mean survival time, dose: 12.5 mg/kg/injection, schedule: Q04DX002 (ip), vehicle: Klucel (hydroxypropylcellulose) (HPC)) was 86 % of control and the T/C (endpoint: mean survival time, dose: 25.0 mg/kg/injection, schedule: Q04DX002 (ip), vehicle: Klucel (hydroxypropylcellulose) (HPC)) was 92 % of control. The T/C [9] was 101 % of control.
`C#CC(C)O` (configuration not stated) was tested, and the T/C (endpoint: mean survival time, dose: 25.0 mg/kg/injection, schedule: Q01DX009 (ip), vehicle: saline) was 96 % of control and the T/C (endpoint: mean survival time, dose: 50.0 mg/kg/injection, schedule: Q01DX009 (ip), vehicle: saline) was 89 % of control.
For `COc1ccc(C(=O)C/C(=N\N(C(=O)c2ccc(OC)cc2)c2ccccc2)c2ccc(OC)cc2)cc1`, the T/C [4] was 95 % of control and the T/C [5] was 97 % of control.
With `OC12C3CC4C5C3C3(Cl)C(Cl)(Cl)C5(Cl)C(Cl)(C41)C23Cl` (configuration not stated) the T/C (endpoint: mean survival time, dose: 1.25 mg/kg/injection, schedule: Q01DX001 (ip), vehicle: other) was 107 % of control, the T/C (endpoint: mean survival time, dose: 2.5 mg/kg/injection, schedule: Q01DX001 (ip), vehicle: other) was 103 % of control and the T/C (endpoint: mean survival time, dose: 5.0 mg/kg/injection, schedule: Q01DX001 (ip), vehicle: other) was 100 % of control.
For `CCN(CC)C(=S)N1C(=O)C2C3CCC(O3)C2C1=O` (configuration not stated), the T/C [12] was 93 % of control.
`Cc1cc(Cl)c2nc(-c3ccccc3)ccc2c1` was tested, and the T/C [10] was 103 % of control, the T/C [11] was 101 % of control and the T/C (endpoint: mean survival time, dose: 400.0 mg/kg/injection, schedule: Q01DX009 (ip), vehicle: saline with Tween-80) was 97 % of control.
`FC(F)(F)C1(F)N(Cc2ccccc2)N=NC1(F)F` (configuration not stated) was tested, and the T/C [6] was 96 % of control, the T/C [7] was 98 % of control and the T/C [8] was 96 % of control.
With `NC1=NCN(c2ccc(OCCOc3ccc(NC(=O)CBr)cc3)cc2)C(N)=N1` the T/C (endpoint: mean survival time, dose: 37.5 mg/kg/injection, schedule: Q04DX002 (ip), vehicle: saline with Tween-80) was 96 % of control, the T/C (endpoint: mean survival time, dose: 75.0 mg/kg/injection, schedule: Q04DX002 (ip), vehicle: saline with Tween-80) was 96 % of control and the T/C (endpoint: mean survival time, dose: 150.0 mg/kg/injection, schedule: Q04DX002 (ip), vehicle: saline with Tween-80) was 90 % of control.
For `O=c1cc(Nc2ccc(Br)cc2)[nH]c(=O)[nH]1`, the T/C (endpoint: mean survival time, dose: 100.0 mg/kg/injection, schedule: Q01DX001 (ip), vehicle: other) was 92 % of control and the T/C (endpoint: mean survival time, dose: 200.0 mg/kg/injection, schedule: Q01DX001 (ip), vehicle: other) was 92 % of control.
With `NC(=O)c1ncnnc1N` the T/C (endpoint: mean survival time, dose: 100.0 mg/kg/injection, schedule: Q01DX001 (ip), vehicle: carboxymethylcellulose (CMC)) was 93 % of control, the T/C (endpoint: mean survival time, dose: 200.0 mg/kg/injection, schedule: Q01DX001 (ip), vehicle: carboxymethylcellulose (CMC)) was 102 % of control and the T/C (endpoint: mean survival time, dose: 400.0 mg/kg/injection, schedule: Q01DX001 (ip), vehicle: carboxymethylcellulose (CMC)) was 102 % of control.
For `OC1OCC(Cc2ccc3c(c2)OCO3)C1Cc1ccc2c(c1)OCO2` (configuration not stated), the T/C [14] was 89 % of control, the T/C [16] was 93 % of control and the T/C [18] was 89 % of control.
For `NC(=O)C1CC1c1ccccc1` (configuration not stated), the T/C [1] was 100 % of control, the T/C [2] was 102 % of control and the T/C [3] was 96 % of control.
